Results reported in ChEMBL document CHEMBL6109129, “Discovery of Conformationally Constrained Dihydro Benzo-Indole Derivatives as Metallo-β-Lactamase Inhibitors to Tackle Multidrug-Resistant Bacterial Infections” (J Med Chem, 2025).
Activity calls are given as the source filed them. The rule behind the calls is not given here.

How the values were obtained:
Klebsiella pneumoniae [1] = assay: Synergistic antibacterial activity against carbapenem-resistant Klebsiella pneumoniae BAA-2473 assessed as reduction in microbial growth at 16 ug/ml measured after 16 to 18 hrs in presence of meropenem by microbial dilution method; type: functional; details: dose 16 µg/ml, time 16-18 hrs
Klebsiella pneumoniae [2] = assay: Synergistic antibacterial activity against carbapenem-resistant Klebsiella pneumoniae 565345 assessed as reduction in microbial growth at 4 ug/ml measured after 16 to 18 hrs in presence of meropenem by microbial dilution method; type: functional; details: dose 4 µg/ml, time 16-18 hrs
Escherichia coli [3] = assay: Synergistic antibacterial activity against carbapenem-resistant Escherichia coli 565988 assessed as reduction in microbial growth at 16 ug/ml measured after 16 to 18 hrs in presence of imipenem by microbial dilution method; type: functional; details: dose 16 µg/ml, time 16-18 hrs
Enterobacter cloacae [4] = assay: Synergistic antibacterial activity against carbapenem-resistant Enterobacter cloacae BAA-2468 assessed as reduction in microbial growth at 0.5 ug/ml measured after 16 to 18 hrs in presence of imipenem by microbial dilution method; type: functional; details: dose 0.5 µg/ml, time 16-18 hrs
[5] = Metabolic stability in mouse liver microsomes assessed as intrinsic clearance at 1 uM preincubated for 5 mins followed by NADPH addition and measured up to 60 mins by LC-MS/MS analysis; type: ADME, Microsome; details: time < 65 min, read-out: CLH
Escherichia coli [6] = assay: Synergistic antibacterial activity against carbapenem-resistant Escherichia coli 565988 assessed as reduction in microbial growth at 4 ug/ml measured after 16 to 18 hrs in presence of meropenem by microbial dilution method; type: functional; details: dose 4 µg/ml, time 16-18 hrs
Escherichia coli [7] = assay: Synergistic antibacterial activity against carbapenem-resistant Escherichia coli 541588 assessed as reduction in microbial growth at 16 ug/ml measured after 16 to 18 hrs in presence of meropenem by microbial dilution method; type: functional; details: dose 16 µg/ml, time 16-18 hrs
[8] = test system: Klebsiella pneumoniae subsp. pneumoniae; assay: Synergistic antibacterial activity against carbapenem-resistant Klebsiella pneumoniae BAA-2472 assessed as reduction in microbial growth at 16 ug/ml measured after 16 to 18 hrs in presence of imipenem by microbial dilution method; type: functional; details: dose 16 µg/ml, time 16-18 hrs
Escherichia coli [9] = assay: Synergistic antibacterial activity against carbapenem-resistant Escherichia coli 571307 assessed as reduction in microbial growth at 16 ug/ml measured after 16 to 18 hrs in presence of imipenem by microbial dilution method; type: functional; details: dose 16 µg/ml, time 16-18 hrs
Klebsiella pneumoniae [10] = assay: Anti-infective activity against carbapenem-resistant Klebsiella pneumoniae ATCC BAA 2146 expressing NDM-1 infected in neutropenic female BALB/c mouse deep thigh infection model assessed as reduction in bacterial count at 20 mg/kg,sc pre-infected with bacteria for 2 hrs followed by compound addition and measured after 26 hrs in presence of imipenem; type: functional
Klebsiella pneumoniae [11] = assay: Synergistic antibacterial activity against carbapenem-resistant Klebsiella pneumoniae 552439 assessed as reduction in microbial growth at 4 ug/ml measured after 16 to 18 hrs in presence of meropenem by microbial dilution method; type: functional; details: dose 4 µg/ml, time 16-18 hrs
Klebsiella pneumoniae [12] = assay: Synergistic antibacterial activity against carbapenem-resistant Klebsiella pneumoniae 538961 assessed as reduction in microbial growth at 4 ug/ml measured after 16 to 18 hrs in presence of imipenem by microbial dilution method; type: functional; details: dose 4 µg/ml, time 16-18 hrs
Klebsiella pneumoniae [13] = assay: Synergistic antibacterial activity against carbapenem-resistant Klebsiella pneumoniae 565345 assessed as reduction in microbial growth at 16 ug/ml measured after 16 to 18 hrs in presence of imipenem by microbial dilution method; type: functional; details: dose 16 µg/ml, time 16-18 hrs
Escherichia coli [14] = assay: Synergistic antibacterial activity against carbapenem-resistant Escherichia coli BAA-2469 assessed as reduction in microbial growth at 0.5 ug/ml measured after 16 to 18 hrs in presence of imipenem by microbial dilution method; type: functional; details: dose 0.5 µg/ml, time 16-18 hrs
Klebsiella pneumoniae [15] = assay: Synergistic antibacterial activity against carbapenem-resistant Klebsiella pneumoniae 552439 assessed as reduction in microbial growth at 4 ug/ml measured after 16 to 18 hrs in presence of imipenem by microbial dilution method; type: functional; details: dose 4 µg/ml, time 16-18 hrs
[16] = test system: Klebsiella pneumoniae subsp. pneumoniae; assay: Synergistic antibacterial activity against carbapenem-resistant Klebsiella pneumoniae subsp. pneumoniae BAA-2470 assessed as reduction in microbial growth at 8 ug/ml measured after 16 to 18 hrs in presence of imipenem by microbial dilution method; type: functional; details: dose 8 µg/ml, time 16-18 hrs
Enterobacter cloacae [17] = assay: Synergistic antibacterial activity against carbapenem-resistant Enterobacter cloacae BAA-2468 assessed as reduction in microbial growth at 8 ug/ml measured after 16 to 18 hrs in presence of meropenem by microbial dilution method; type: functional; details: dose 8 µg/ml, time 16-18 hrs
Klebsiella pneumoniae [18] = assay: Synergistic antibacterial activity against carbapenem-resistant Klebsiella pneumoniae 571278 assessed as reduction in microbial growth at 4 ug/ml measured after 16 to 18 hrs in presence of meropenem by microbial dilution method; type: functional; details: dose 4 µg/ml, time 16-18 hrs
[19] = Metabolic stability in human liver microsomes assessed as intrinsic clearance at 1 uM preincubated for 5 mins followed by NADPH addition and measured up to 60 mins by LC-MS/MS analysis; type: ADME, Microsome; details: time < 65 min, read-out: CLH
[20] = test system: Klebsiella pneumoniae subsp. pneumoniae; assay: Synergistic antibacterial activity against carbapenem-resistant Klebsiella pneumoniae BAA-2470 assessed as reduction in microbial growth at 16 ug/ml measured after 16 to 18 hrs in presence of imipenem by microbial dilution method; type: functional; details: dose 16 µg/ml, time 16-18 hrs
Escherichia coli [21] = assay: Synergistic antibacterial activity against carbapenem-resistant Escherichia coli BAA-2471 assessed as reduction in microbial growth at 8 ug/ml measured after 16 to 18 hrs in presence of imipenem by microbial dilution method; type: functional; details: dose 8 µg/ml, time 16-18 hrs
[22] = test system: Klebsiella pneumoniae subsp. pneumoniae; assay: Synergistic antibacterial activity against carbapenem-resistant Klebsiella pneumoniae subsp. pneumoniae BAA-2470 assessed as reduction in microbial growth at 0.5 ug/ml measured after 16 to 18 hrs in presence of imipenem by microbial dilution method; type: functional; details: dose 0.5 µg/ml, time 16-18 hrs
Klebsiella pneumoniae [23] = assay: Synergistic antibacterial activity against Klebsiella pneumoniae ATCC BAA 2146 expressing NDM-1 measured after 16 to 18 hrs in presence of meropenem by microbial dilution method; type: functional, organism-based; details: time 16-18 hrs
Klebsiella pneumoniae [24] = assay: Synergistic antibacterial activity against Klebsiella pneumoniae ATCC BAA 2146 expressing NDM-1 measured after 16 to 18 hrs in presence of imipenem by microbial dilution method; type: functional, organism-based; details: time 16-18 hrs
[25] = Metabolic stability in human liver microsomes assessed as parent compound remaining at 1 uM measured at 60 mins in presence of NADPH by LC-MS/MS analysis; type: ADME, Microsome; details: read-out: Stability
Escherichia coli [26] = assay: Synergistic antibacterial activity against carbapenem-resistant Escherichia coli BAA-2469 assessed as reduction in microbial growth at 16 ug/ml measured after 16 to 18 hrs in presence of imipenem by microbial dilution method; type: functional; details: dose 16 µg/ml, time 16-18 hrs
[27] = target: Metallo-beta-lactamase type 2 (Bacteria) (UniProt C7C422); assay: Induction of thermal stabilization of NDM-1 (unknown origin) assessed as melting temperature at 50 uM by differential scanning fluorimetry analysis
Klebsiella pneumoniae [28] = assay: Synergistic antibacterial activity against carbapenem-resistant Klebsiella pneumoniae 571278 assessed as reduction in microbial growth at 4 ug/ml measured after 16 to 18 hrs in presence of imipenem by microbial dilution method; type: functional; details: dose 4 µg/ml, time 16-18 hrs
Escherichia coli [29] = assay: Synergistic antibacterial activity against carbapenem-resistant Escherichia coli 541588 assessed as reduction in microbial growth at 4 ug/ml measured after 16 to 18 hrs in presence of meropenem by microbial dilution method; type: functional; details: dose 4 µg/ml, time 16-18 hrs
Escherichia coli [30] = assay: Synergistic antibacterial activity against carbapenem-resistant Escherichia coli 571307 assessed as reduction in microbial growth at 4 ug/ml measured after 16 to 18 hrs in presence of meropenem by microbial dilution method; type: functional; details: dose 4 µg/ml, time 16-18 hrs
[31] = Apparent permeability the compound in PBS buffer at pH 7.4 measured after 5 hrs by LC-MS/MS analysis; type: ADME; details: not told

Sequence of Metallo-beta-lactamase type 2 (Bacteria) (C7C422 whole entry): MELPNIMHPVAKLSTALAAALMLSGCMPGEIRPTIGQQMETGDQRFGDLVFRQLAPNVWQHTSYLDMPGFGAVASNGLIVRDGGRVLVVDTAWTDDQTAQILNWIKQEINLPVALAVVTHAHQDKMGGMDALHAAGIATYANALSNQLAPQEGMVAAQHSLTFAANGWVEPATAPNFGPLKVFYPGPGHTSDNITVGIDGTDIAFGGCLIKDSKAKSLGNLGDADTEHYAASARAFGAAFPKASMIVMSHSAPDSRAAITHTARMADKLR

Q: With COc1ccc(Cl)cc1-c1c(C(=O)O)[nH]c2c1CCc1ccccc1-2 as the compound, how does the MIC (Klebsiella pneumoniae [1]) read?
A: The MIC was 8 µg/mL.

Q: And the MIC (Klebsiella pneumoniae [2])?
A: Its MIC is 4 µg/mL.

Q: And the MIC (Escherichia coli [3])?
A: Its MIC is less than 0.5 µg/mL.

Q: What about the MIC (Enterobacter cloacae [4]) of the same compound?
A: Its MIC is greater than 64 µg/mL.

Q: And the microsomal CLint at 1 µM [5]?
A: Its microsomal CLint at 1 µM is 12.9 µL/min/mg.

Q: What about the MIC (Escherichia coli [6]) of the same compound?
A: Its MIC is 1 µg/mL.

Q: And the MIC (Escherichia coli [7])?
A: The MIC was 1 µg/mL.

Q: And the MIC [8]?
A: The MIC was 8 µg/mL.

Q: What about the MIC (Escherichia coli [9]) of the same compound?
A: Its MIC is 2 µg/mL.

Q: And the Activity (Klebsiella pneumoniae [10])?
A: Its Activity is roughly 2.2 log10CFU/ml.

Q: What about the MIC (Klebsiella pneumoniae [11]) of the same compound?
A: The MIC was 16 µg/mL.

Q: And the MIC (Klebsiella pneumoniae [12])?
A: The MIC was 32 µg/mL.

Q: And the MIC (Klebsiella pneumoniae [13])?
A: The MIC was 8 µg/mL.

Q: What about the MIC (Escherichia coli [14]) of the same compound?
A: The MIC was 32 µg/mL.

Q: And the MIC (Klebsiella pneumoniae [15])?
A: Its MIC is 4 µg/mL.

Q: What about the MIC [16] of the same compound?
A: Its MIC is 2 µg/mL.

Q: And the MIC (Enterobacter cloacae [17])?
A: Its MIC is 8 µg/mL.

Q: And the MIC (Klebsiella pneumoniae [18])?
A: The MIC was 32 µg/mL.

Q: What about the microsomal CLint at 1 µM [19] of the same compound?
A: The microsomal CLint at 1 µM was 9.8 µL/min/mg.

Q: What about the MIC [20] of the same compound?
A: Its MIC is 2 µg/mL.

Q: What about the MIC (Escherichia coli [21]) of the same compound?
A: Its MIC is 16 µg/mL.

Q: What about the MIC [22] of the same compound?
A: The MIC was 16 µg/mL.

Q: What about the Activity (Klebsiella pneumoniae [23]) of the same compound?
A: The Activity was “Active”.

Q: What about the Activity (Klebsiella pneumoniae [24]) of the same compound?
A: Its Activity is “Active”.

Q: What about the remaining at 1 h, 1 µM [25] of the same compound?
A: Its remaining at 1 h, 1 µM is 56%.

Q: And the MIC (Escherichia coli [26])?
A: The MIC was 4 µg/mL.

Q: What about the Tm [27] of the same compound?
A: The Tm was 20 °C.

Q: What about the MIC (Klebsiella pneumoniae [28]) of the same compound?
A: The MIC was 8 µg/mL.

Q: What about the MIC (Escherichia coli [29]) of the same compound?
A: The MIC was 8 µg/mL.

Q: And the MIC (Escherichia coli [30])?
A: The MIC was 2 µg/mL.

Q: And the Papp at 5 h [31]?
A: Its Papp at 5 h is 14 ×10⁻⁶ cm/s.
